Measured values: patent publication US11252953B2, “Repellent and attractant composition for dichromatic animals” (The United States of America, Represented by the Secretary …, priority 2016, dated 2022)

Assays:
Canada geese = details: range printed jointly for Canada geese and red-winged blackbirds; cited from earlier work
male house mice = details: wheat treated with 15% anthraquinone and chloroform; cited from earlier work
common grackles = details: in vivo; cited from earlier work
male common voles = details: wheat treated with 15% anthraquinone and chloroform; cited from earlier work
deer mice = test: Deer mouse concentration-response feeding experiment; type: in vivo, Peromyscus maniculatus Wagner
possums [1] = details: 0.08% anthraquinone; cited from earlier work
[2] = system: Richardson's ground squirrels; test: Richardson's ground squirrel concentration-response feeding experiment; type: in vivo, Urocitellus richardsonii Sabine
wild boar = details: corn treated with 0.64% anthraquinone; cited from earlier work
possums [3] = details: 0.25% anthraquinone; cited from earlier work
California voles = test: California vole concentration-response feeding experiment; type: in vivo, Microtus californicus Peale
black rats = details: 0.1% and 0.25% anthraquinone; cited from earlier work
American crows = details: in vivo; cited from earlier work
red-winged blackbirds = details: range printed jointly for Canada geese and red-winged blackbirds; cited from earlier work
female common voles = details: wheat treated with 5% anthraquinone and chloroform; cited from earlier work
ring-necked pheasants = details: in vivo; cited from earlier work
brown rats = details: 0.04% and 0.08% anthraquinone; control baits 0.01-0.03% cinnamon, green carrots; cited from earlier work
[4] = system: black-tailed prairie dogs; details: corn seeds treated with 0.5-4.0% anthraquinone; cited from earlier work
cottontail rabbits = test: Cottontail rabbit concentration-response feeding experiment; type: in vivo, Sylvilagus audubonii Baird

For `O=C1c2ccccc2C(=O)c2ccccc21` [anthraquinone, 9,10-anthraquinone], the predicted threshold concentration (Canada geese) is listed as 1,450-1,475 ppm, the “consumption of treated wheat relative to wheat treated only with chloroform” value (male house mice) is listed as “greater consumption” and the predicted threshold concentration (common grackles) is listed as 9,200 ppm. The “consumption of treated wheat relative to wheat treated only with chloroform” value (male common voles) was “no difference”, the repellency (deer mice; whole oats treated with 0.25-2.0% anthraquinone (target; actual 2,820-19,900 ppm)) was 19-52% and the repellency (deer mice; whole oats treated with 10,800 ppm anthraquinone) was 52%. For the same molecule, the “consumption of anthraquinone-treated baits relative to control baits” value (possums [1]) was “no different”, the feeding repellency ([2]; whole oats treated with 0.5-2.0% anthraquinone (target; actual 5,380-18,500 ppm)) was 40-56% and the repellency ([2]; whole oats treated with 18,500 ppm anthraquinone) was 56%. For the same molecule, the “less treated corn consumed than untreated corn” value (wild boar) was 86.5%, the “response to anthraquinone-treated baits” value (possums [3]) was “aversion” and the “anthraquinone dosage for observed threshold repellency” value (California voles; at 18,300 ppm anthraquinone (84% repellency), mean vole BM=38.1 g) was 365.0±103.1 mg anthraquinone/kg BM. The threshold concentration (California voles; can effectively repel voles from treated food) was 1.3 % (wt/wt), the predicted threshold concentration (California voles; concentration needed to achieve 80% feeding repellency, non-linear regression, treated oats) was “about 13,400 ppm” and the repellency (California voles; whole oats treated with 0.25-2.0% anthraquinone (target, wt/wt; actual 2,050-18,300 ppm), test consumption (day 4) relative to pre-test consumption) was 24-84%. For the same molecule, the repellency (California voles; whole oats treated with 18,300 ppm anthraquinone) was 84%, the “response to anthraquinone-treated baits” value (black rats) was “aversion” and the predicted threshold concentration (American crows) was 5,200 ppm. The predicted threshold concentration (red-winged blackbirds) was 1,450-1,475 ppm, the “less treated wheat consumed than wheat treated only with chloroform” value (female common voles) was 47% and the predicted threshold concentration (ring-necked pheasants) was 10,450 ppm. The “consumption of anthraquinone-treated baits relative to control baits” value (brown rats) was “less”, the repellency [4] was 24-37% and the “anthraquinone dosage for observed threshold repellency” value (cottontail rabbits) was 149.9±28.1 mg anthraquinone/kg BM. For the same molecule, the repellency (cottontail rabbits; oats treated with 4,790 ppm anthraquinone) was 68%, the repellency (cottontail rabbits; oats treated with 10,300 ppm anthraquinone) was 75% and the feeding repellency (cottontail rabbits; whole oats treated with 0.5-2.0% anthraquinone (target; actual 4,790-19,600 ppm)) was 68-85%. It also gave a feeding repellency (cottontail rabbits; whole oats treated with 19,600 ppm anthraquinone (target 2.0%)) of 85%.
